What was measured:
Assay type in all cases: in vivo
[1] = test system: peronospora (Plasmopara viticola); assay: Open-field fight against peronospora on muscat vine (Examples 2-6); conditions: 11 interventions
From the text: (§1) All tables and related theses reproduced herein result from an experimental activity carried out in the open field following precise protocols and experimental guidelines.
(§2) The aim of this experimental activity was that of verifying the possibility of reducing the amount of the chemical formulation employed, while keeping the activity of same unchanged towards adversities to be fought (peronospora, mildew and Panonychus ulmi), thanks to addition of the adjuvant, preferably soybean oil.
(§3) The methodologies for detection of the efficiency results were selected depending on: the pathology to be fought, infection, % spreading of the disease for peronospora, mildew and acid rot, and depending on the count of the mite number per leaf in the fight tests against Panonychus ulmi.
(§4) Among the great number of statistical tests interpreting the experimental data items, Duncan test in the scientific field is considered as one of the best evaluation instruments for significance of the experimental data items. […] Example: 12.5a 0.9b 0.3b

[2] = test system: Lactuga sativa; assay: Composite chemical weedkilling, spraying on trays of lettuce plants (Examples 12-15); conditions: 1 intervention; for % devitalization T + 14: 14 days from treatment; for % devitalization T + 27: 27 days from treatment
From the text: • Treatment: 300 l/ha of solution were sprayed • Experimental pattern: spraying on 4 trays, each containing 8 lettuce plants • Flower survey: carried out after 14 days from treatment (T), (T+14), and after 27 days (T+27), stating the devitalization degree in percentage
Test target: Composite chemical weedkilling (Lactuga sativa)
With reference to the active ingredients employed in examples 12-15, it was an aim of this experimental research to verify the influence of the emulsion addition on the herbicide activity towards a target weed belonging to the compositae family. By virtue of the high herbicide activity of weedkillers, when applied in the amounts on the label, and in order to highlight possible efficiency variations of same among the different theses dealt with, all active ingredients were employed alone in amounts reduced by ⅓ and reduced by ⅓ in an extemporaneous mixture with the emulsion being the object of the present invention. Example: should the active ingredients have been employed to the amounts reproduced on the label, it would have been very likely to obtain a 100% devitalization of the weed with the active ingredient alone and in a mixture with the emulsion.
As to the methodologies for efficiency detection, a visual estimation was selected, by allocating a % value to the overall devitalizing activity observed on the target plant.

[3] = test system: Panonychus ulmi; assay: Open-field fight against Panonychus ulmi on muscat vine (Examples 8-10); conditions: 1 intervention
From the text: as §1, §2, §3, §4

[4] = test system: mildew (Uncinula necator); conditions: muscat vine; 4795 g or ml/ha; 6 interventions

## CO/C=C(/C(=O)OC)c1ccccc1Oc1cc(Oc2ccccc2C#N)ncn1 [Azoxystrobin]
[1]; 250 g or ml/ha
  % infection on bunches: 0.0 b %
  % spreading on bunches: 0.0 b %
  Action Degree: 100

## CCCCCCCC(=O)Oc1c(Br)cc(C#N)cc1Br [Bromoxynil octanoate]
[2]; 356 g or ml/ha
  % devitalization T + 14: 56.0%
  % devitalization T + 27: 67.5%

## O=C(O)c1nc(Cl)ccc1Cl [Clopyradil]
[2]; 100 g or ml/ha
  % devitalization T + 14: 85.0%
  % devitalization T + 27: 87.5%

## COc1ccc(C(=CC(=O)N2CCOCC2)c2ccc(Cl)cc2)cc1OC [Dimethomorph]
[1]; 1050 g or ml/ha
  % infection on bunches: 0.0 b %
  % spreading on bunches: 0.0 b %
  Action Degree: 100

## O=C(NC(=O)c1c(F)cccc1F)Nc1ccc(Oc2ccc(C(F)(F)F)cc2Cl)cc1F [Flufenoxuron]
[3]; 50 g or ml/ha
  Action Degree: 68.0
  Mites per leaf 1: 1.1 b
  Mites per leaf 2: 3.0 b

## O=C1c2ccccc2C(=O)N1SC(Cl)(Cl)Cl [Folpet]
[1]; 1200 g or ml/ha
  % infection on bunches: 0.0 b %
  % spreading on bunches: 0.0 b %
  Action Degree: 100

## O=C(O)CNCP(=O)(O)O [Gliphosate]
[2]; 360 g or ml/ha
  % devitalization T + 14: 32.0%
  % devitalization T + 27: 90.0%

## C[C@@H]1[C@@H](c2ccc(Cl)cc2)SC(=O)N1C(=O)NC1CCCCC1 [Hexythiazox]
[3]; f.c. 30 g or ml/ha
  Action Degree: 91.6
  Mites per leaf 1: 0.0 b
  Mites per leaf 2: 0.6 b

## O=c1[nH]c2c(c(=O)n1C1CCCCC1)CCC2 [Lenacil]
[2]; 150 g or ml/ha
  % devitalization T + 14: 11.0%
  % devitalization T + 27: 30.0%

## S1SSSSSSS1 [Sulphur]
[4]
  % infection on bunches: 2.2 b %
  % spreading on bunches: 12.5 bd %
  Action Degree: 85.7

## CCc1nn(C)c(C(=O)NCc2ccc(C(C)(C)C)cc2)c1Cl [Tebufenpyrad]
[3]; 125 g or ml/ha
  Action Degree: 80.8
  Mites per leaf 1: 0.4 b
  Mites per leaf 2: 1.1 b

## Fosetyl-Aluminium
[1]; 960 g or ml/ha
  % infection on bunches: 0.3 b %
  % spreading on bunches: 0.8 b %
  Action Degree: 87.2

## Mancozeb
[1]; 1470 g or ml/ha
  % infection on bunches: 0.2 b %
  % spreading on bunches: 0.3 b %
  Action Degree: 97.4

— patent publication US20050129662A1 (priority 2002, published 2005)
